Results as given in ChEMBL document CHEMBL4808245, “Cytoprotective agent troxipide-cyanine dye conjugate with cytotoxic and antiproliferative activity in patient-derived glioblastoma cell lines” (Bioorg Med Chem Lett, 2021).
Activity calls are given as the source filed them. The rule behind the calls is not given here.

Tests used:
U-87 MG [1] = assay: Cytotoxicity against human U-87MG cells assessed as reduction in total cell count measured after 96 hrs by Hoechst staining analysis; assay type: functional, cell-based, U-87MG ATCC
U-87 MG [2] = assay: Cytotoxicity against human U-87MG cells assessed as reduction in total cell count measured after 96 hrs in presence of TMZ by Hoechst staining analysis; assay type: functional, cell-based, U-87MG ATCC
U-87 MG [3] = assay: Antiproliferative activity against human U-87MG cells assessed as reduction in cell proliferation measured after 48 hrs by EdU-incorporation assay; assay type: functional, cell-based, U-87MG ATCC
U-87 MG [4] = assay: Antiproliferative activity against human U-87MG cells assessed as reduction in cell proliferation measured after 48 hrs in presence of TMZ by EdU-incorporation assay; assay type: functional, cell-based, U-87MG ATCC
GBM [5] = assay: Cytotoxicity against patient derived human GBM cells assessed as reduction in total cell count measured after 96 hrs by Hoechst staining analysis; assay type: functional, cell-based
GBM [6] = assay: Cytotoxicity against patient derived human GBM cells assessed as reduction in total cell count measured after 96 hrs in presence of TMZ by Hoechst staining analysis; assay type: functional, cell-based
GBM [7] = assay: Antiproliferative activity against patient derived human GBM cells assessed as reduction in cell proliferation measured after 48 hrs by EdU-incorporation assay; assay type: functional, cell-based
GBM [8] = assay: Antiproliferative activity against patient derived human GBM cells assessed as reduction in cell proliferation measured after 48 hrs in presence of TMZ by EdU-incorporation assay; assay type: functional, cell-based
KNS-42 [9] = assay: Cytotoxicity against human KNS-42 cells assessed as reduction in total cell count measured after 96 hrs by Hoechst staining analysis; assay type: functional, cell-based; conditions: KNS-42, 96 h
KNS-42 [10] = assay: Cytotoxicity against human KNS-42 cells assessed as reduction in total cell count measured after 96 hrs in presence of TMZ by Hoechst staining based analysis; assay type: functional; conditions: KNS-42, 96 h
KNS-42 [11] = assay: Antiproliferative activity against human KNS-42 cells assessed as reduction in cell proliferation measured after 48 hrs by EdU-incorporation assay; assay type: functional, cell-based; conditions: KNS-42, 48 h
KNS-42 [12] = assay: Antiproliferative activity against human KNS-42 cells assessed as reduction in cell proliferation measured after 48 hrs in presence of TMZ by EdU-incorporation assay; assay type: functional, cell-based; conditions: KNS-42, 48 h
GBM [13] = assay: Induction of apoptosis in patient derived human GBM cells assessed as increase in cleaved caspase-3 positive cells at IC50; assay type: functional, cell-based
[14] = Cytotoxicity against primary brain pericytes (unknown origin); assay type: cell-based
[15] = Selectivity ratio of EC50 for cytotoxicity against primary brain pericytes (unknown origin) to EC50 for cytotoxicity against patient derived human GBM cells
GBM [16] = assay: Synergistic cytotoxicity against patient derived human GBM cells assessed as combination index at 0.04 nM measured after 96 hrs in presence of TMZ by Hoechst staining based analysis; assay type: functional
GBM [17] = assay: Synergistic cytotoxicity against patient derived human GBM cells assessed as combination index at 0.2 nM measured after 96 hrs in presence of TMZ by Hoechst staining based analysis; assay type: functional
GBM [18] = assay: Synergistic cytotoxicity against patient derived human GBM cells assessed as combination index at 1 nM measured after 96 hrs in presence of TMZ by Hoechst staining based analysis; assay type: functional
GBM [19] = assay: Synergistic cytotoxicity against patient derived human GBM cells assessed as combination index at 5 nM measured after 96 hrs in presence of TMZ by Hoechst staining based analysis; assay type: functional
GBM [20] = assay: Synergistic cytotoxicity against patient derived human GBM cells assessed as combination index at 25 nM measured after 96 hrs in presence of TMZ by Hoechst staining based analysis; assay type: functional
GBM [21] = assay: Synergistic cytotoxicity against patient derived human GBM cells assessed as combination index at 125 nM measured after 96 hrs in presence of TMZ by Hoechst staining based analysis; assay type: functional
GBM [22] = assay: Synergistic cytotoxicity against patient derived human GBM cells assessed as combination index at 800 nM measured after 96 hrs in presence of TMZ by Hoechst staining based analysis; assay type: functional
GBM [23] = assay: Synergistic cytotoxicity against patient derived human GBM cells assessed as combination index at 4000 nM measured after 96 hrs in presence of TMZ by Hoechst staining based analysis; assay type: functional
GBM [24] = assay: Synergistic cytotoxicity against patient derived human GBM cells assessed as combination index at 20000 nM measured after 96 hrs in presence of TMZ by Hoechst staining based analysis; assay type: functional
GBM [25] = assay: Synergistic cytotoxicity against patient derived human GBM cells assessed as combination index at 100000 nM measured after 96 hrs in presence of TMZ by Hoechst staining based analysis; assay type: functional
U-87 MG [26] = assay: Antagonistic cytotoxicity against human U-87MG cells assessed as combination index at 0.04 nM measured after 96 hrs in presence of TMZ by Hoechst staining based analysis; assay type: functional, U-87MG ATCC
U-87 MG [27] = assay: Synergistic cytotoxicity against human U-87MG cells assessed as combination index at 0.2 nM measured after 96 hrs by Hoechst staining based analysis; assay type: functional, U-87MG ATCC
U-87 MG [28] = assay: Antagonistic cytotoxicity against human U-87MG cells assessed as combination index at 1 nM measured after 96 hrs in presence of TMZ by Hoechst staining based analysis; assay type: functional, U-87MG ATCC
U-87 MG [29] = assay: Synergistic cytotoxicity against human U-87MG cells assessed as combination index at 5 nM measured after 96 hrs by Hoechst staining based analysis; assay type: functional, U-87MG ATCC
U-87 MG [30] = assay: Antagonistic cytotoxicity against human U-87MG cells assessed as combination index at 25 nM measured after 96 hrs in presence of TMZ by Hoechst staining based analysis; assay type: functional, U-87MG ATCC
U-87 MG [31] = assay: Synergistic cytotoxicity against human U-87MG cells assessed as combination index at 125 nM measured after 96 hrs by Hoechst staining based analysis; assay type: functional, U-87MG ATCC
U-87 MG [32] = assay: Synergistic cytotoxicity against human U-87MG cells assessed as combination index at 800 nM measured after 96 hrs by Hoechst staining based analysis; assay type: functional, U-87MG ATCC
U-87 MG [33] = assay: Synergistic cytotoxicity against human U-87MG cells assessed as combination index at 4000 nM measured after 96 hrs by Hoechst staining based analysis; assay type: functional, U-87MG ATCC
U-87 MG [34] = assay: Synergistic cytotoxicity against human U-87MG cells assessed as combination index at 20000 nM measured after 96 hrs by Hoechst staining based analysis; assay type: functional, U-87MG ATCC
U-87 MG [35] = assay: Synergistic cytotoxicity against human U-87MG cells assessed as combination index at 100000 nM measured after 96 hrs by Hoechst staining based analysis; assay type: functional, U-87MG ATCC
KNS-42 [36] = assay: Antagonistic cytotoxicity against human KNS-42 cells assessed as combination index at 0.04 nM measured after 96 hrs in presence of TMZ by Hoechst staining based analysis; assay type: functional
KNS-42 [37] = assay: Synergistic cytotoxicity against human KNS-42 cells assessed as combination index at 0.2 nM measured after 96 hrs by Hoechst staining based analysis; assay type: functional
KNS-42 [38] = assay: Antagonistic cytotoxicity against human KNS-42 cells assessed as combination index at 1 nM measured after 96 hrs in presence of TMZ by Hoechst staining based analysis; assay type: functional
KNS-42 [39] = assay: Synergistic cytotoxicity against human KNS-42 cells assessed as combination index at 5 nM measured after 96 hrs by Hoechst staining based analysis; assay type: functional
KNS-42 [40] = assay: Antagonistic cytotoxicity against human KNS-42 cells assessed as combination index at 25 nM measured after 96 hrs in presence of TMZ by Hoechst staining based analysis; assay type: functional
KNS-42 [41] = assay: Synergistic cytotoxicity against human KNS-42 cells assessed as combination index at 125 nM measured after 96 hrs by Hoechst staining based analysis; assay type: functional
KNS-42 [42] = assay: Synergistic cytotoxicity against human KNS-42 cells assessed as combination index at 800 nM measured after 96 hrs by Hoechst staining based analysis; assay type: functional
KNS-42 [43] = assay: Synergistic cytotoxicity against human KNS-42 cells assessed as combination index at 4000 nM measured after 96 hrs by Hoechst staining based analysis; assay type: functional
KNS-42 [44] = assay: Synergistic cytotoxicity against human KNS-42 cells assessed as combination index at 20000 nM measured after 96 hrs by Hoechst staining based analysis; assay type: functional
KNS-42 [45] = assay: Synergistic cytotoxicity against human KNS-42 cells assessed as combination index at 100000 nM measured after 96 hrs by Hoechst staining based analysis; assay type: functional

COc1cc(C(=O)NC2CCCN(C(=O)CCCCCN3/C(=C/C=C4\CCCC(/C=C/C5=[N+](CCCCCC(=O)N6CCCC(NC(=O)c7cc(OC)c(OC)c(OC)c7)C6)c6ccccc6C5(C)C)=C4Cl)C(C)(C)c4ccccc43)C2)cc(OC)c1OC.[Br-] (stereo not given)
EC50 (U-87 MG [1]): 394 nM | EC50 (U-87 MG [2]): 108 nM | IC50 (U-87 MG [3]): 504 nM | IC50 (U-87 MG [4]): 194 nM | EC50 (GBM [5]): 211 nM | EC50 (GBM [6]): 90 nM | IC50 (GBM [7]): 164 nM | IC50 (GBM [8]): 110 nM | EC50 (KNS-42 [9]): 394 nM | EC50 (KNS-42 [10]): 108 nM | IC50 (KNS-42 [11]): 504 nM | IC50 (KNS-42 [12]): 194 nM | Activity (GBM [13]): Active | EC50 [14]: 3600 nM | Ratio EC50 [15]: 19 | CI (GBM [16]): 0.323 | CI (GBM [17]): 0.025 | CI (GBM [18]): 0.301 | CI (GBM [19]): 0.551 | CI (GBM [20]): 0.506 | CI (GBM [21]): 0.571 | CI (GBM [22]): 0.287 | CI (GBM [23]): 0.536 | CI (GBM [24]): 0.526 | CI (GBM [25]): 0.248 | CI (U-87 MG [26]): 5.672 | CI (U-87 MG [27]): 0.016 | CI (U-87 MG [28]): 3.406 | CI (U-87 MG [29]): 0.134 | CI (U-87 MG [30]): 3.837 | CI (U-87 MG [31]): 0.268 | CI (U-87 MG [32]): 0.067 | CI (U-87 MG [33]): 0.116 | CI (U-87 MG [34]): 0.052 | CI (U-87 MG [35]): 0.05 | CI (KNS-42 [36]): 5.672 | CI (KNS-42 [37]): 0.016 | CI (KNS-42 [38]): 3.406 | CI (KNS-42 [39]): 0.134 | CI (KNS-42 [40]): 3.837 | CI (KNS-42 [41]): 0.268 | CI (KNS-42 [42]): 0.067 | CI (KNS-42 [43]): 0.116 | CI (KNS-42 [44]): 0.052 | CI (KNS-42 [45]): 0.05
